Source: patent publication US20160213680A1, “COMPOSITIONS AND METHODS USING FLUMAZENIL WITH OPIOID ANALGESICS FOR TREATING PAIN AND/OR ADDICTION, AND WITH DIVERSION AND/OR OVERDOSE MITIGATION” (SOTERIAN PHARMACEUTICALS, LLC, priority 2015, published 2016)
Values joined by “and” are separate entries in the source; they are usually repeats but may differ in a detail not shown here. Equal values may be shown once. “Also recorded” adds a separate entry of the source.

What was measured:
[1] = in vivo, cited from earlier work
[2] = tested on: patients who had been taking methadone; assay: Example 2: conversion of methadone patients to the sublingual tablet (withdrawal, VAS pain); format: in vivo, human; conditions: patients withdrawing from methadone
Procedure: […]. These patients took an average of 9 days to convert before methadone withdrawal was completely eliminated.
Patients who had been taking 50 mg to 140 mg per day of methadone were first titrated down with Ultram (e.g., via 2 to 3 tablets of Ultram 50 mg administered every 6 hours) for four days. Following this titration period, the patients were given injections containing 0.3 mg buprenorphine and 60 mg torodol to see if further time was needed before the sublingual tablets comprising buprenorphine and flumazenil could be started without risk of precipitating withdrawal. […]. Stomach tightness, nausea, and restless legs were the most common complaints from these patients.

[3] = Tablet pilot studies of flumazenil tolerability; format: in vivo, human; conditions: tablet formulations, compared with IV flumazenil history
Excerpt: Note, several historical physiological ideas about IV flumazenil may be much different compared to the formulations of flumazenil used in the various pharmaceutical dosage units. […] When patients are currently prescribed opiates, such patients are instructed to avoid benzodiazepines and the pharmaceutical dosage units disclosed herein may make physicians more confident that such patients will remain compliant with that instruction.

[4] = tested on: sedation associated with benzodiazepines (midazolam); format: in vivo, human
Procedure: Subjects were pretreated with about 10 mg flumazenil orally. After 30 minutes midazolam (a benzodiazepine) 0.3 mg was administered and repeated every 30 minutes until sedative effects were noticed by the subject or reported by the investigator. Oral flumazenil of about 10 mg was able to block midazolam for an average of 150 minutes.
This example study was repeated with about 30 mg flumazenil orally (2 subjects) and sublingually (3 subjects). Allowing the sublingual flumazenil treatment option was thought to avoid first pass hepatic metabolism and potentially increase Cmax (maximum [or peak] serum concentration), shorten Tmax (time at which the Cmax is observed) and is expected to increase the area under the curve for flumazenil in the serum. In this dose range study subjects were again pretreated with about 30 mg flumazenil orally or sublingually. After 30 minutes midazolam (Versed) 0.3 mg was administered and repeated every 30 minutes until sedative effects were noticed by the subject or reported by the investigator.

Row | Compound | oral and/or gastrointestinal bioavailability ([1]; po) | elimination half-life [1] | effect of flumazenil on the pain and withdrawal relieving effect of buprenorphine [2] | anxiety, panic attacks, dysphoria, disorientation [3] | duration of blockade from Versed ([4]; about 3 mg IV flumazenil) | duration of midazolam blockade / protection from sedation (average) ([4]; about 10 mg flumazenil orally, midazolam 0.3 mg every 30 minutes) | sedation at the 330 minute interval ([4]; about 30 mg flumazenil orally or sublingually, all subjects) | duration of midazolam blockade, individual subjects ([4]; about 30 mg flumazenil orally, the 2 subjects) | time for flumazenil to clear the serum (average) ([4]; human, in vivo, po) | time to maximum sedation after IV midazolam dosing ([4]; midazolam 0.3 mg IV)
1 | CCOC(=O)c1ncn2c1CN(C)C(=O)c1cc(F)ccc1-2 [flumazenil, ethyl 8-fluoro-5-methyl-6-oxo-5,6-dihydro-4H-benzo[f]imidazo[1,5-a][1,4]diazepine-3-carboxylate] | very low | 1.4 h | noticeably enhanced | does not cause anxiety nor panic attacks; also recorded: no dysphoria nor disorientation | 60 min | 150 min | measurable (but reduced) sedation | 240 min and 270 min | about 3 hours | –
2 | Cc1ncc2n1-c1ccc(Cl)cc1C(c1ccccc1F)=NC2 [midazolam] | – | – | – | – | – | – | – | – | – | 5 min
